In patent publication US20220079993A1, “NON-NATURALLY OCCURRING THERMOGENIC ADIPOCYTES, METHODS OF MAKING, AND METHODS OF USE THEREOF” (University of Georgia Research Foundation, Inc., priority 2019, published 2022):

Key:
UCP1 = assay: qRT-PCR of UCP1 transcript in beige adipocytes -/+ forskolin; assay type: cell-based, human; conditions: beige adipocytes stimulated with FSK (20 uM)
Description: FIG. 2A is a bar graph showing RNA expression levels by qRT-PCR for indicated genes (UCP1, DIO2) for adipose derived stem cells (ADSCs), GlucoCytes (GC), or GC with forskolin (FSK, 20 uM). FIG. 2B is a bar graph showing quantitation of immunostaining data (UCP1) from 6 independent fields of view. FIGS. 2C and 2D are bar graphs showing qRT-PCR of UCP1 of GC induced from an additional line purchased from ThermoFisher (2C) and an immortalized ADSC line purchased from ATCC (ASC52-telo) (2D). Transcript levels were determined by qRT-PCR. n=3 for each independent replicate. Data are mean+/−standard deviation. *P<0.0.05, **P<0.01, ***P<0.005. […] Cell lysates were collected at indicated days and RNA was isolated and analyzed by qRT-PCR for marker expression. […] Each line was differentiated for 21 days to beige adipocytes using B-8 medium and transcript levels of UCP1 (2Q), PPARGC1 (2R), IRF4 (2S), and ADIPOQ (2T) were measured by Taqman qRT-PCR for indicated genes +/−FSK for 6 hours (20 μM).
Cells were washed with DPBS, lysed directly on the plate and used for RNA isolation with the E.Z.N.A Total RNA Kit (Omega, R6834-02) according to manufacturer instructions. RNA quantitation was performed with the Biotek Synergy 2 plate reader and cDNA was synthesized using 1 ug of RNA with the iScript cDNA Synthesis Kit (Bio-Rad, 1708841). […]

GC = assay: Seahorse Mito Stress Test; assay type: cell-based, human; conditions: forskolin 20 μM for 24 hours
Description: FIG. 5A is a line graph showing the oxygen consumption rate from a Seahorse Mito Stress Test assay of GC compared to white adipocytes (WA). Cells were stimulated with forskolin (FSK, 20 uM) for 24 hours prior to treatment, and oligomycin (3 μM), FCCP (3 μM), and antimycin a/rotenone (5 μM) were added at indicated time points. n=9, where n is the number of independent replicates for each cell type/condition. Assay was normalized to total protein content. FIG. 5B is a line graph showing extracellular acidification rate from the assay in FIG. 5A. FIGS. 5C-5E are bar graphs showing basal respiration rate (5C) from the assay maximal respiration (5D) and proton leak (5E) calculated from assay performed in FIG. 5A. FIG. 5F is a bar graph showing the results of a lipolysis assay of ADSCs or GC (BA), treated with forskolin for indicated time period. FIG. 5G is a bar graph showing quantification of thermogenic dye assay of GC with or without forskolin treatment. […]
To perform the assay, ADSCs were plated on XFe24 plates (Agilent) at 5000 cell/cm^2 and grown to confluency. […] Following the assay, cells were lysed using RIPA buffer and protein concentration was determined by Bradford assay. Data was normalized by protein concentration and analyzed in Wave software (Agilent).

## C=C[C@@]1(C)CC(=O)[C@]2(O)[C@@]3(C)[C@@H](O)CCC(C)(C)[C@@H]3[C@H](O)[C@H](OC(C)=O)[C@@]2(C)O1 [Forskolin]
UCP1
  UCP1 transcript level compared to ADSCs: 520 fold
GC
  Elevation of uncoupled respiration (proton leak) relative to basal conditions: 64.7%
